Experimental findings from ChEMBL document CHEMBL6078724, “Discovery of the first examples of right open reading frame kinase 2 (RIOK2) molecular glue degraders” (Eur J Med Chem, 2025) are described below.

The target in data set [1] is T1, E3 ubiquitin-protein ligase RNF126/Serine/threonine-protein kinase RIO2 (Homo sapiens, UniProt Q9BVS4+Q9BV68). Briefly: Molecular glue degradation activity at RNF126/RIOK2 in human HL-60 cells assessed as induction protein degradation by immunoblot analysis relative to control. Type of data set: cell-based.
Target sequence in this assay (Q9BV68 2-311 partner limits assumed): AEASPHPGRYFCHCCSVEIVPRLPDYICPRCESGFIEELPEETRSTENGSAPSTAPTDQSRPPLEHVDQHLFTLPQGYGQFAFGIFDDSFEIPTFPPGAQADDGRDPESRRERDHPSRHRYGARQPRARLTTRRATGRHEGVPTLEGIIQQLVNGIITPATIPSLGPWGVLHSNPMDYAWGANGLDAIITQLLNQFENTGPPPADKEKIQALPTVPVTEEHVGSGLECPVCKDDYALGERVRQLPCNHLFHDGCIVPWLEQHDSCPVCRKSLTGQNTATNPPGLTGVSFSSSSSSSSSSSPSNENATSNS
Target sequence in this assay (Q9BVS4 whole entry): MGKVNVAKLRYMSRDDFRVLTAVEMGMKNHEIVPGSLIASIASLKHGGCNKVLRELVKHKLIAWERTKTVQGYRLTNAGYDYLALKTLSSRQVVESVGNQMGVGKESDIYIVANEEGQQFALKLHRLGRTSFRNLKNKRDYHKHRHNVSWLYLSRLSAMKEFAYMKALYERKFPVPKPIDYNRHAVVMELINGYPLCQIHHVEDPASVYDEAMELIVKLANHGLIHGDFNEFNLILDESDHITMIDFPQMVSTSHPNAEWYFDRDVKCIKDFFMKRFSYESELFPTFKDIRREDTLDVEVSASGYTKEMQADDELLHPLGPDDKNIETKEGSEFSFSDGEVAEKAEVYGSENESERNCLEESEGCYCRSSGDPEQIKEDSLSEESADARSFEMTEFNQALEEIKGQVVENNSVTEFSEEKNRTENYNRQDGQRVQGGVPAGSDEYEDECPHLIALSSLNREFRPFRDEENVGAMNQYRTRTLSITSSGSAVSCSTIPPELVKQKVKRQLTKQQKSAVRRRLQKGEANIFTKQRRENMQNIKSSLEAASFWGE
Data set [2] deals with T1, E3 ubiquitin-protein ligase RNF126/Serine/threonine-protein kinase RIO2. Briefly: Molecular glue degradation activity at RNF126/RIOK2 in human MOLT-4 cells assessed as induction protein degradation at 1 uM incubated for 12 hrs by immunoblot analysis. The data set is classed as cell-based. A general note: A western blot detects proteins with antibodies after separation by electrophoresis.
Target sequence in this assay (Q9BV68 2-311 partner limits assumed): as the sequence (Q9BV68 2-311 partner limits assumed) above
Target sequence in this assay (Q9BVS4 whole entry): as the sequence (Q9BVS4 whole entry) above

For data set [3] the target is unchanged. Briefly: Molecular glue degradation activity at RNF126/RIOK2 in human HeLa cells assessed as induction protein degradation by immunoblot analysis. The data set is classed as cell-based.
Target sequence in this assay (Q9BVS4 whole entry): as above
Target sequence in this assay (Q9BV68 whole entry): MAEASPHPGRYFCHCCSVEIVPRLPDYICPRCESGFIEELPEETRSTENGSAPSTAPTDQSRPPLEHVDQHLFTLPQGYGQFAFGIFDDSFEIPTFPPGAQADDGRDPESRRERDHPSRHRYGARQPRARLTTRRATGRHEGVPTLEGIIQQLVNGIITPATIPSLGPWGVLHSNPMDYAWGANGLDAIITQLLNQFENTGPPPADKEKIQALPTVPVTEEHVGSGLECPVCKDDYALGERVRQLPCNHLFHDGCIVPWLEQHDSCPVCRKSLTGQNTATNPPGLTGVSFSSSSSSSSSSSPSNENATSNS
The subject of a further data set is ASPC1. Briefly: Antiproliferative activity against human ASPC1 cells incubated for 72 hrs by CCK8 assay. Conditions: ASPC1, 72 h. Type of data set: functional, cell-based. Background: Tetrazolium assays rely on reduction of a dye to a coloured formazan, in cell work by metabolically active cells.
Data set [4] can be described thus: Cmax in Sprague-Dawley rat at 5 mg/kg, iv measured for 24 hrs. The data set is classed as ADME, organism-based. Conditions: in vivo.
In data set [5] the target is T1, E3 ubiquitin-protein ligase RNF126/Serine/threonine-protein kinase RIO2. Briefly: Molecular glue degradation activity at RNF126/RIOK2 in MG132-treated human MOLT-4 cells assessed as induction protein degradation at 1 uM incubated for 12 hrs by immunoblot analysis. Type of data set: cell-based.
Target sequence in this assay (Q9BV68 2-311 partner limits assumed): as the sequence (Q9BV68 2-311 partner limits assumed) above
Target sequence in this assay (Q9BVS4 whole entry): as the sequence (Q9BVS4 whole entry) above
The target is the same in data set [6]. Briefly: Molecular glue degradation activity at RNF126/RIOK2 in human MOLT-4 cells assessed as induction protein degradation incubated for 12 hrs by immunoblot analysis relative to control. The data set is classed as cell-based.
Target sequence in this assay (Q9BV68 2-311 partner limits assumed): as the sequence (Q9BV68 2-311 partner limits assumed) above
Target sequence in this assay (Q9BVS4 whole entry): as the sequence (Q9BVS4 whole entry) above
Another data set relates to MOLT-4. Briefly: Antitumor activity against human MOLT-4 cells xenografted in SCID-CB17 mouse at 10 mg/kg, ip for 18 days relative to control. Type of data set: functional. Conditions: MOLT-4, 432 h, time 18 day, read-out: TGI. For orientation: A xenograft is tissue or cells of one species grown in another, often human tumour cells in immunodeficient mice.
Data set [7] has as its target T1, E3 ubiquitin-protein ligase RNF126/Serine/threonine-protein kinase RIO2. Briefly: Molecular glue degradation activity at RNF126/RIOK2 in human ASPC1 cells assessed as induction protein degradation by immunoblot analysis. The data set is classed as cell-based.
Target sequence in this assay (Q9BVS4 whole entry): as above
Target sequence in this assay (Q9BV68 whole entry): as the sequence (Q9BV68 whole entry) above
For another data set, the system named is U-937. Briefly: Antiproliferative activity against human U-937 cells incubated for 72 hrs by CCK8 assay. Type of data set: functional, cell-based. Conditions: U-937, 72 h.
Data set [8] is described as follows: Half life in Sprague-Dawley rat at 10 mg/kg, ip measured for 24 hrs. The conditions noted are these: in vivo. The data set is classed as ADME, organism-based.

A word on the Emax: it is the maximal effect, on the per cent scale that the assay sets. By DC50 is commonly meant the midpoint of the concentration-degradation curve. Usually IC50 stands for the concentration at which inhibition is half-maximal. Lower therefore signals higher potency. A word on the Cmax: it is the peak of the concentration-time curve. One may read the half-life as how long it takes for the measured level to halve.

Activity calls are given as the source filed them. No cut-off for these calls is given here.

In the case of `COc1ccc(-c2ccc3[nH]c(=O)c4nnn(-c5ccc(N6CCN(C(=O)/C=C/C(=O)c7ccc(F)cc7)CC6)c(C(F)(F)F)c5)c4c3c2)cn1`, the maximum response (Emax) amounted to 74.6% in [1] and 83.4% in [6]. The outcome in data set [2] was Active. The values for the half-maximal degradation concentration (DC50) in data set [3] and in data set [7] were 8700 nM and above 10000 nM, respectively. Further, the concentration for half-maximal inhibition (IC50) with ASPC1 was found to be 1130 nM; in the data set on U-937 it was 410 nM. The compound further gave a Cmax in [4] of 1440 ng/mL. Moreover, in [5], the result was inactive. The inhibition in vivo at 10 mg/kg with MOLT-4 was 18.6%. Further, the half-life in [8] is 8.1 h.
